Test results taken from publication PMC6193938, “Characterization of a novel AICARFT inhibitor which potently elevates ZMP and has anti-tumor activity in murine models” (Scientific Reports, 2018).

What was measured:
[1] = tested on: AMPKA; experiment: CEREP protein kinase assay; format: biochemical
[2] = target: T1, AURA (Homo sapiens, UniProt O14965); experiment: CEREP protein kinase assay; format: biochemical
T1 construct: purchased CEREP Panlabs (Eurofins)
T1 sequence (O14965 1-403): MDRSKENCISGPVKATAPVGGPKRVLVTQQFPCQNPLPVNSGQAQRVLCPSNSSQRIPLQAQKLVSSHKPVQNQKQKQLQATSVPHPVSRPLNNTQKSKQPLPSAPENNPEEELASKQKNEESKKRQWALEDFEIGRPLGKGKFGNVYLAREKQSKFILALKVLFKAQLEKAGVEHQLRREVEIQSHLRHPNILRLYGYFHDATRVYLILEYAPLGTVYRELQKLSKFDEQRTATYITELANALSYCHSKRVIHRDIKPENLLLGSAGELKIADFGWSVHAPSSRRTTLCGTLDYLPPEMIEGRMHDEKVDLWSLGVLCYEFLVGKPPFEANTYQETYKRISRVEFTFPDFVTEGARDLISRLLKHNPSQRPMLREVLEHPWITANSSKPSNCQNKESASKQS

[3] = target: T2, TRKA (Homo sapiens, UniProt P04629); experiment: CEREP protein kinase assay; format: biochemical
T2 construct: purchased CEREP Panlabs (Eurofins)
T2 sequence (P04629 33-796): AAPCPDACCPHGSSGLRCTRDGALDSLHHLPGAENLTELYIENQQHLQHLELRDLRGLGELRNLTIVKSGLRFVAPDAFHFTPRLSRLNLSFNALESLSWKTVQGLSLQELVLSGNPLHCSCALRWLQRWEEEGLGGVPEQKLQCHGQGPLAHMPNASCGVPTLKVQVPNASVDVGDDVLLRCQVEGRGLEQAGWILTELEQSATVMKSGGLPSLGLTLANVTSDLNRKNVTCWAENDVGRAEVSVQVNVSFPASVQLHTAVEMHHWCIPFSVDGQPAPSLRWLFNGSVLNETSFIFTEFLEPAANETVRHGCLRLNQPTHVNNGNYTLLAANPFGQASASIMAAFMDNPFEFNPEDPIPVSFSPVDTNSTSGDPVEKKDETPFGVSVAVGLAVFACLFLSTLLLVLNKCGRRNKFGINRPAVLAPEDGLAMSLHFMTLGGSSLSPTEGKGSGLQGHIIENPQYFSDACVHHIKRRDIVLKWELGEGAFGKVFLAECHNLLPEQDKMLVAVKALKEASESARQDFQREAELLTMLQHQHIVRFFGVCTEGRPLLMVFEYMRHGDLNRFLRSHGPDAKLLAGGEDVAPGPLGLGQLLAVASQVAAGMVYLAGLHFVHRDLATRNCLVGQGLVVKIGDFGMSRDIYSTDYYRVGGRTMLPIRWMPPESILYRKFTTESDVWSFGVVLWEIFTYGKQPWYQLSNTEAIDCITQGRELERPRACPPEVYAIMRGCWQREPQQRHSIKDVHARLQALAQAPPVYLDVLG

[4] = target: T3, TBK1 (Homo sapiens, UniProt Q9UHD2); experiment: CEREP protein kinase assay; format: biochemical
T3 construct: purchased CEREP Panlabs (Eurofins)
T3 sequence (Q9UHD2 1-729): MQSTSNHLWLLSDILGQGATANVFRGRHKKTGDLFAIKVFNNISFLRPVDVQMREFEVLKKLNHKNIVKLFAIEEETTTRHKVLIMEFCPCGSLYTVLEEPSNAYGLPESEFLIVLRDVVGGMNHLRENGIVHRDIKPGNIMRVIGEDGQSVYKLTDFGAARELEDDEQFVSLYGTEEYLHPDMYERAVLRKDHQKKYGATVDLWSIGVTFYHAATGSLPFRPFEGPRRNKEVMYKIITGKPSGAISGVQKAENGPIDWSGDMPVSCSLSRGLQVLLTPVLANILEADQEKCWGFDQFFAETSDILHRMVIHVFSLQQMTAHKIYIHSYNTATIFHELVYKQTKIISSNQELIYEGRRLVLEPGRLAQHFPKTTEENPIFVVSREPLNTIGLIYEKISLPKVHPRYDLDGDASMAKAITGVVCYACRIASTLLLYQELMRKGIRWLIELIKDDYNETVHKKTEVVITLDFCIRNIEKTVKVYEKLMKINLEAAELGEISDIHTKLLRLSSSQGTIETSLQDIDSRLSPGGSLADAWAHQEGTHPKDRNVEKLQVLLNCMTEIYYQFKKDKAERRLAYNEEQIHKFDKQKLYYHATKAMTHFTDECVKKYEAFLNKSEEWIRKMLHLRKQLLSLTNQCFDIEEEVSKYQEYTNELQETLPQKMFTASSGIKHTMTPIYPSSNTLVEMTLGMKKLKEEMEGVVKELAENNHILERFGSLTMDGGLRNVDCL

[5] = tested on: NCI-H460 xenograft; experiment: Antitumor efficacy and tumor metabolites, mouse xenograft, normal folate diet; format: in vivo; details: NCI-H460 tumors; after 13 days of treatment; normal chow
[6] = target: T4, NEK2 (Homo sapiens, UniProt P51955); experiment: CEREP protein kinase assay; format: biochemical
T4 construct: purchased CEREP Panlabs (Eurofins)
T4 sequence (P51955 1-445): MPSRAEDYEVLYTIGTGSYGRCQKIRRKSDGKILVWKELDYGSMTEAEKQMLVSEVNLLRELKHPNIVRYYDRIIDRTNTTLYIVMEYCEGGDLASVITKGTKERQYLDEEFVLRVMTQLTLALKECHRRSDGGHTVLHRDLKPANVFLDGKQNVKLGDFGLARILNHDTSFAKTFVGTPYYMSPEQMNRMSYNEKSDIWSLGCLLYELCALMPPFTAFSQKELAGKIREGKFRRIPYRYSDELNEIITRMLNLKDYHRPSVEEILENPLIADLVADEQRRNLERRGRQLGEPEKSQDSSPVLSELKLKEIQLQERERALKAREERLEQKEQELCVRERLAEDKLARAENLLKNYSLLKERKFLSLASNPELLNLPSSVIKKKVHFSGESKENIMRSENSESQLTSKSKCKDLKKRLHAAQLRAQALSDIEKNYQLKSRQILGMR

[7] = target: T5, CHK2 (Homo sapiens, UniProt O96017); experiment: CEREP protein kinase assay; format: biochemical
T5 construct: purchased CEREP Panlabs (Eurofins)
T5 sequence (O96017 whole entry): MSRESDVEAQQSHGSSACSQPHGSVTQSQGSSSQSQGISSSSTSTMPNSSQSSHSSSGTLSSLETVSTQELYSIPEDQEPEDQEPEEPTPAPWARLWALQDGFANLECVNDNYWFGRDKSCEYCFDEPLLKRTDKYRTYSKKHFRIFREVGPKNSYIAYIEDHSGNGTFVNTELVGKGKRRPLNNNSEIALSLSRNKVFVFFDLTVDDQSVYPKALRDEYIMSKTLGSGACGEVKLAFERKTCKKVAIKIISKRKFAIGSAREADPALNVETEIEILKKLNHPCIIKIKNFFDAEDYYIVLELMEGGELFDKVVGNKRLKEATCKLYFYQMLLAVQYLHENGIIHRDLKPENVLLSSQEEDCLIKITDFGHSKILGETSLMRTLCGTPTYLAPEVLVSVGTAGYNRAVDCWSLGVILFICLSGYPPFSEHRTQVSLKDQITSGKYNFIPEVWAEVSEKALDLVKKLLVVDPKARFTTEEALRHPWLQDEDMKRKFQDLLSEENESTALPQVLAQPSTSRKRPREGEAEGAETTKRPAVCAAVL

[8] = target: T6, LIMK1 (Homo sapiens, UniProt P53667); experiment: CEREP protein kinase assay; format: biochemical
T6 construct: purchased CEREP Panlabs (Eurofins)
T6 sequence (P53667 whole entry): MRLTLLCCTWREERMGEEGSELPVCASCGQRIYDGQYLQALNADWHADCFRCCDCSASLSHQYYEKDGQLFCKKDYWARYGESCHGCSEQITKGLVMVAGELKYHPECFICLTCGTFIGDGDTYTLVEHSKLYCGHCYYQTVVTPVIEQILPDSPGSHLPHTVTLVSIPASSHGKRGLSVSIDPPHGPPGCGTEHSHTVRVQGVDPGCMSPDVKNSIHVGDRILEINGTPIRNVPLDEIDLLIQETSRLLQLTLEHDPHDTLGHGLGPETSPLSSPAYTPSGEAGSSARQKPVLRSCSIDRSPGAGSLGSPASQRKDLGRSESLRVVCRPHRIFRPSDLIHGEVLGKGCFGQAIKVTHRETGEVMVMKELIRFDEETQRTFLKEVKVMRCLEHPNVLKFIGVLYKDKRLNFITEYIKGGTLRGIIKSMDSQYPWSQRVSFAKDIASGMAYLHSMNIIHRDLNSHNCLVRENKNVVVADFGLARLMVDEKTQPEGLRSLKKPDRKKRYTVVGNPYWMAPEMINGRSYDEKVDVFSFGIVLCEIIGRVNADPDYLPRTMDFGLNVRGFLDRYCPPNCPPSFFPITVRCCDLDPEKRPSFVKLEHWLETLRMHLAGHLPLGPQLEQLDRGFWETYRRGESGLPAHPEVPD

[9] = target: T7, ALK (Homo sapiens, UniProt Q9UM73); experiment: CEREP protein kinase assay; format: biochemical
T7 construct: purchased CEREP Panlabs (Eurofins)
T7 sequence (Q9UM73 19-1620): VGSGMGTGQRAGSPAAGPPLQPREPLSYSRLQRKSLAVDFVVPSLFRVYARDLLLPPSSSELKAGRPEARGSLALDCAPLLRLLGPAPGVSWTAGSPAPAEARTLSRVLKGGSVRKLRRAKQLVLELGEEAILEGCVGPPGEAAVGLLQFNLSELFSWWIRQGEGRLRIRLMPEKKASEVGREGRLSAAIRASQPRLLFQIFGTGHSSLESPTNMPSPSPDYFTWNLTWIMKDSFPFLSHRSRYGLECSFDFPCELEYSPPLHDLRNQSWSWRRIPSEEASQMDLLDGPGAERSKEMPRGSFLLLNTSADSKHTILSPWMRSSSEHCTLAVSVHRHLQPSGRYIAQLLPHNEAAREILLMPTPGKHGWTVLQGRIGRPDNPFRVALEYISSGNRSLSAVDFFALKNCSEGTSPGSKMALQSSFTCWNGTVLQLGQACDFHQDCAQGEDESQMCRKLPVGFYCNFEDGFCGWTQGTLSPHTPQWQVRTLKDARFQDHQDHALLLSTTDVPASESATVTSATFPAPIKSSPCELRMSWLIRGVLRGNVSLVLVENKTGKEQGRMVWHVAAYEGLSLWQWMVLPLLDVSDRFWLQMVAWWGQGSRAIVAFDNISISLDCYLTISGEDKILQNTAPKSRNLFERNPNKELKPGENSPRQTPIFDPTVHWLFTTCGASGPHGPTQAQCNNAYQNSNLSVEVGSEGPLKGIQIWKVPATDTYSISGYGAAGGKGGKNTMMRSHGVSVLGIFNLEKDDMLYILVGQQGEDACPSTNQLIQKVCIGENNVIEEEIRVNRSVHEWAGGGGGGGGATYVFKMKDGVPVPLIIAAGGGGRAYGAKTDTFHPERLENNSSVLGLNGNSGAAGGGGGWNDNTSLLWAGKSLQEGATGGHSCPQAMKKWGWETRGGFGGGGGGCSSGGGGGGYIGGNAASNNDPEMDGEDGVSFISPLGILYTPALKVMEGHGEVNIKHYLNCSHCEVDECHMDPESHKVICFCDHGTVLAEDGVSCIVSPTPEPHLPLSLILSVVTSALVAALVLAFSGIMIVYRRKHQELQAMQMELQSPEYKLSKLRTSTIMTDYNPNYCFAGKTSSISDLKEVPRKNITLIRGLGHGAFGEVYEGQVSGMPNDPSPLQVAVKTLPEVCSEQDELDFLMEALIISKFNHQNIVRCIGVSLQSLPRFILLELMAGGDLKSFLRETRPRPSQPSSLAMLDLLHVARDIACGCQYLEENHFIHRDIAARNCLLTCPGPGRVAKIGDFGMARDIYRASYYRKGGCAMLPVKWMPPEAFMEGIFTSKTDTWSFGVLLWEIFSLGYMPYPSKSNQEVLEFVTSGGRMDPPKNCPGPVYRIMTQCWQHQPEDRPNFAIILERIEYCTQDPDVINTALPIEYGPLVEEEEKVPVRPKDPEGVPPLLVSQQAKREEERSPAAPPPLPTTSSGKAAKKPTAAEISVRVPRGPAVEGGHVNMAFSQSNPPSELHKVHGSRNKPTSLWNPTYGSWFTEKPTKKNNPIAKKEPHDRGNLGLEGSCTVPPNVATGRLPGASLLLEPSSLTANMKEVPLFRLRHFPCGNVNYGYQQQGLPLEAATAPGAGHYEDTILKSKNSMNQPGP

With `O=c1[nH]ccc2cc(F)c(NS(=O)(=O)c3ccc(N4CC[C@@H](O)C4)s3)cc12` [LSN3213128, N-(6-Fluoro-1-oxo-1,2-dihydroisoquinolin-7-yl)-5-[(3R)-3-hydroxypyrrolidin-1-yl]thiophene-2-sulfonamide] the “% Inhibition” value ([1]; @ 0.2 uM) was -3.69 (26.6, n=2) %, the “% Inhibition” value ([1]; @ 2 uM) was 9.14 (16.7, n=2) % and the “% Inhibition” value ([1]; @ 20 uM) was 9.08 (3.34, n=2) %. It also gave an inhibition at 0.2 µM ([2]; @ 0.2 uM) of -4.11%, an inhibition at 2 µM ([2]; @ 2 uM) of 1.86% and an inhibition at 20 µM ([2]; @ 20 uM) of 4.28%. It also gave an inhibition at 0.2 µM ([3]; @ 0.2 uM) of -1.15%, an inhibition at 2 µM ([3]; @ 2 uM) of 8.27% and an inhibition at 20 µM ([3]; @ 20 uM) of 10.1%. It also gave an inhibition at 0.2 µM ([4]; @ 0.2 uM) of -3.62%, an inhibition at 2 µM ([4]; @ 2 uM) of 13.1% and an inhibition at 20 µM ([4]; @ 20 uM) of 11%. For the same molecule, the “tumor ZMP levels” value [5] was “dramatically elevated”, the “tumor dUMP levels” value [5] was “remained constant” and the inhibition at 0.2 µM ([6]; @ 0.2 uM) was -9.52%. It also gave an inhibition at 2 µM ([6]; @ 2 uM) of 5.24%, an inhibition at 20 µM ([6]; @ 20 uM) of -6.75% and an inhibition at 0.2 µM ([7]; @ 0.2 uM) of -9.59%. For the same molecule, the inhibition at 2 µM ([7]; @ 2 uM) was 14.3%, the inhibition at 20 µM ([7]; @ 20 uM) was 8.93% and the inhibition at 0.2 µM ([8]; @ 0.2 uM) was -7.18%. The inhibition at 2 µM ([8]; @ 2 uM) was 5.89%, the inhibition at 20 µM ([8]; @ 20 uM) was 0.523% and the inhibition at 0.2 µM ([9]; @ 0.2 uM) was -16.7%. The inhibition at 2 µM ([9]; @ 2 uM) was 7.47% and the inhibition at 20 µM ([9]; @ 20 uM) was 31.8%.
